One data set deals with Mino cells. Briefly: Inhibition of cell proliferation, Mino cells (Cell Viability Assay, 72 h). Type of data set: cell-based, human. As to the method: (§1) SU-DHL-4, Mino, and SU-DHL-6 cells, in the culture medium of RPMI1640+10% FBS, were cultured in an incubator at 37° C. under 5% CO2. Cells were plated in a 96-well plate. Specifically, SU-DHL-4 cells were at 20000/well, Mino and SU-DHL-6 cells were at 5000/well, with 90 μL/well. 10 μL of the compounds at different concentrations were added to each well. There were 3 replicate wells for each concentration, and the last column, added with DMSO, was used as a vehicle control group. The cultures were continued for 72 hours at 37° C. under 5% CO2. After 72 hours, 100 μL of detection reagent (Cell Viability Assay, Promega, G7573) was added to each well, and the cultures were uniformly mixed for 2 minutes, and incubated at room temperature for 10 minutes. The fluorescence signal value was measured with a microplate reader (PHERAstar FSX). The IC50 value of the compound on cell proliferation inhibition was calculated using Origin 9.2 software, and the inhibition rate at the highest concentration of the compound (Max inhi. %) was calculated according to formula (1). Max inhi. %=(1-T72 administration/T72 vehicle)×100 Formula (1).

The nature of data set [1]: Pharmacokinetic experiment in rats (i.g. vehicle 0.5% MC). The conditions noted are these: male SD rats; for AUC(0-t): i.g. 20 mg/kg, vehicle 0.5% MC. The format is in vivo. The method, then: Objective: In this experiment, a single dose of each test compound was administered to SD rats intravenously and intragastrically, the concentrations of the test compound in plasma of rats were measured, and the pharmacokinetic characteristics and bioavailability of the test compound in rats were evaluated.
Experimental animals: Male SD rats, 200-250 g, 6-8 weeks old, 6 rats/test compound. The experimental animals were purchased from CHENGDU DOSSY EXPERIMENTAL ANIMALS CO., LTD.
Experimental method: On the day of the experiment, 6 SD rats were randomly grouped according to their body weight. The animals were fasted with water available for 12 to 14 hours one day before the administration of a test compound, and were fed 4 hours after the administration.
Sampling: Before and after the administration, 0.1 ml of blood was taken from the orbit of the rats under isoflurane anesthesia, and placed in an EDTAK2 centrifuge tube. Centrifugation was carried out at 5000 rpm at 4° C. for 10 min and the plasma was collected.
Time points for plasma collection in G1 group: 0, 5 m, 15 m, 30 m, 1 h, 2 h, 4 h, 6 h, 8 h, and 24 h.
Time points for plasma collection in G2 group: 0, 15 m, 30 m, 1 h, 2 h, 4 h, 6 h, 8 h, and 24 h.
Before analysis and detection, all samples were stored at −80° C. The samples were analyzed quantitatively by LC-MS/MS.

Another data set has as its system SU-DHL-6 cells. As to the kind of experiment: Inhibition of cell proliferation, SU-DHL-6 cells (Cell Viability Assay, 72 h). The format is cell-based. Particulars: Homo sapiens. The method, then:
as §1

The test system of another data set is SU-DHL-4 cells. As to the kind of experiment: Inhibition of cell proliferation, SU-DHL-4 cells (Cell Viability Assay, 72 h). The format is cell-based, human. Particulars: for IC50: Homo sapiens; for SU-DHL-4 Max inhi. %: inhibition rate at the highest concentration of the compound. The method, then:
as §1

Where [2] appears, read: Sprague-Dawley (SD), rat, po, plasma, read-out: AUC0-t.

Structures can show the parent of a compound that is named as a salt. Where two headings read alike, the source gives them in different places.

Turning to `Nc1ncnc2c1c(-c1ccc(Oc3ccccc3)cc1)nn2[C@@H]1CCN(C2CCN(C3CN(c4ccc5c(c4)C(=O)N(C4CCC(=O)NC4=O)C5=O)C3)CC2)C[C@H]1F` (relative stereo) [Compound 20-1, trans-5-(3-(4-(4-amino-3-(4-phenoxyphenyl)-1H-pyrazolo[3,4-d]pyrimidin-1-yl)-3-fluoro-[1,4′-bipiperidin]-1′-yl)azetidin-1-yl)-2-(2,6-dioxopiperidin-3-yl)isoindoline-1,3-dione], inhibition in the data set with Mino cells was half-maximal at 32 nM (IC50). The AUC(0-t) in data set [1] (plasma) came out at 891 ± 164 ng·h/mL.

Regarding `Nc1ncnc2c1c(-c1ccc(Oc3ccccc3)cc1)nn2C1CCN(C2CC3(CCN(c4ccc5c(c4)C(=O)N(C4CCC(=O)NC4=O)C5=O)CC3)C2)CC1` (stereo not drawn) [Compound 1, 5-[2-[4-[4-amino-3-(4-phenoxyphenyl)pyrazolo[3,4-d]pyrimidin-1-yl]-1-piperidyl]-7-azaspiro[3.5]nonan-7-yl]-2-(2,6-dioxo-3-piperidyl)isoindoline-1,3-dione], the AUC(0-t) in data set [1] (setting [2]) was 479 ± 197 ng·h/mL.

Consider `Nc1ncnc2c1c(-c1ccc(Oc3ccccc3)cc1)nn2C1CCN(c2cnc(N3CC4CN(c5ccc6c(c5)C(=O)N(C5CCC(=O)NC5=O)C6=O)CC4C3)nc2)CC1` (stereo not drawn) [Compound 3, 5-[5-[5-[4-[4-amino-3-(4-phenoxyphenyl)pyrazolo[3,4-d]pyrimidin-1-yl]-1-piperidyl]pyrimidin-2-yl]-1,3,3a,4,6,6a-hexahydropyrrolo[3,4-c]pyrrol-2-yl]-2-(2,6-dioxo-3-piperidyl)isoindoline-1,3-dione tetratrifluoroacetate], for which, in data set [1] (setting [2]), the AUC(0-t) was 211 ± 46 ng·h/mL.

Take `Nc1ncnc2c1c(-c1ccc(Oc3ccccc3)cc1)nn2C1CCN(c2cnc(N3CC4(CCN(c5ccc6c(c5)C(=O)N(C5CCC(=O)NC5=O)C6=O)CC4)C3)nc2)CC1` (stereo not drawn) [Compound 4, 5-[2-[5-[4-[4-amino-3-(4-phenoxyphenyl)pyrazolo[3,4-d]pyrimidin-1-yl]-1-piperidyl]pyrimidin-2-yl]-2,7-diazaspiro[3.5]nonan-7-yl]-2-(2,6-dioxo-3-piperidyl)isoindoline-1,3-dione]: in data set [1] (setting [2]), the AUC(0-t) was 36 ± 10 ng·h/mL.

Turning to `Nc1ncnc2c1c(-c1ccc(Oc3ccccc3)cc1)nn2C1CCN(c2cnc(N3CCC4(CC3)CN(c3ccc5c(c3)C(=O)N(C3CCC(=O)NC3=O)C5=O)C4)nc2)CC1` (stereo not drawn) [Compound 5, 5-[7-[5-[4-[4-amino-3-(4-phenoxyphenyl)pyrazolo[3,4-d]pyrimidin-1-yl]-1-piperidyl]pyrimidin-2-yl]-2,7-diazaspiro[3.5]nonan-2-yl]-2-(2,6-dioxo-3-piperidyl)isoindoline-1,3-dione], the AUC(0-t) in data set [1] (setting [2]) came to 81.7 ± 68 ng·h/mL.

With `Nc1ncnc2c1c(-c1ccc(Oc3ccccc3)cc1)nn2C1CCN(Cc2cnc(N3CC4(CCN(c5ccc6c(c5)C(=O)N(C5CCC(=O)NC5=O)C6=O)CC4)C3)nc2)CC1` (stereo not drawn) [Compound 7, 5-[2-[5-[[4-[4-amino-3-(4-phenoxyphenyl)pyrazolo[3,4-d]pyrimidin-1-yl]-1-piperidyl]methyl]pyrimidin-2-yl]-2,7-diazaspiro[3.5]nonan-7-yl]-2-(2,6-dioxo-3-piperidyl)isoindoline-1,3-dione tritrifluoroacetate], the AUC(0-t) in data set [1] (setting [2]) worked out at 105 ± 54 ng·h/mL.

Consider `Nc1ncnc2c1c(-c1ccc(Oc3ccccc3)cc1)nn2C1CCN(CC2CN(C3CCN(c4ccc5c(c4)C(=O)N(C4CCC(=O)NC4=O)C5=O)CC3)C2)CC1` (stereo not drawn) [Compound 10, 5-(4-(3-((4-(4-amino-3-(4-phenoxyphenyl)-1H-pyrazolo[3,4-d]pyrimidin-1-yl)piperidin-1-yl)methyl)azetidin-1-yl)piperidin-1-yl)-2-(2,6-dioxopiperidin-3-yl)isoindoline-1,3-dione Tetratrifluoroacetate], for which the results for the IC50 with Mino cells (Homo sapiens) and in the data set with SU-DHL-6 cells were 405 nM and 77 nM, respectively.

In the case of `Nc1ncnc2c1c(-c1ccc(Oc3ccccc3)cc1)nn2C1CCN(C2CN(C3CCN(C4CCN(C5CN(c6ccc7c(c6)C(=O)N(C6CCC(=O)NC6=O)C7=O)C5)CC4)CC3)C2)CC1` (stereo not drawn) [Compound 13, 5-[3-[4-[4-[3-[4-[4-amino-3-(4-phenoxyphenyl)pyrazolo[3,4-d]pyrimidin-1-yl]-1-piperidyl]azetidin-1-yl]-1-piperidyl]-1-piperidyl]azetidin-1-yl]-2-(2,6-dioxo-3-piperidyl)isoindoline-1,3-dione], the figures for the IC50 in the data set on SU-DHL-4 cells and in the data set on Mino cells (Homo sapiens) were 70 nM and 677 nM, respectively.

Regarding `Nc1ncnc2c1c(-c1ccc(Oc3ccccc3)cc1)nn2C1CCN(C2CCN(C3CCN(C4CCN(C5CCN(c6ccc7c(c6)C(=O)N(C6CCC(=O)NC6=O)C7=O)CC5)CC4)CC3)CC2)CC1` (stereo not drawn) [Compound 14, 5-[4-[4-[4-[4-[4-[4-amino-3-(4-phenoxyphenyl)pyrazolo[3,4-d]pyrimidin-1-yl]-1-piperidyl]-1-piperidyl]-1-piperidyl]-1-piperidyl]-1-piperidyl]-2-(2,6-dioxo-3-piperidyl)isoindoline-1,3-dione Hexatrifluoroacetate], the IC50 – broadly, the concentration at which inhibition is half-maximal – in the data set on SU-DHL-4 cells was found to be 60 nM; with SU-DHL-6 cells it was 86 nM.

Turning to `Nc1ncnc2c1c(-c1ccc(Oc3ccccc3)cc1)nn2C1CCN(C2CN(C3CN(c4ccc5c(c4)C(=O)N(C4CCC(=O)NC4=O)C5=O)C3)C2)CC1F` (stereo not drawn) [Compound 19, trans-5-(3-(4-(4-amino-3-(4-phenoxyphenyl)-1H-pyrazolo[3,4-d]pyrimidin-1-yl)-3-fluoropiperidin-1-yl)-[1,3′-biazetidin]-1′-yl)-2-(2,6-dioxopiperidin-3-yl)isoindoline-1,3-dione trifluoroacetate], the IC50 in the data set on Mino cells (Homo sapiens) is 48 nM; in the data set with SU-DHL-6 cells, 782 nM.

Turning to `Nc1ncnc2c1c(-c1ccc(Oc3ccccc3)cc1)nn2C1CCN(C2CN(C3CN(c4cc5c(cc4F)C(=O)N(C4CCC(=O)NC4=O)C5=O)C3)C2)CC1` (stereo not drawn) [Compound 21, 5-(3-(4-(4-amino-3-(4-phenoxyphenyl)-1H-pyrazolo[3,4-d]pyrimidin-1-yl)piperidin-1-yl)-[1,3′-biazetidin]-1′-yl)-2-(2,6-dioxopiperidin-3-yl)-6-fluoroisoindoline-1,3-dione], in data set [1] (Sprague-Dawley (SD), rat, plasma, po, i.g. 20 mg/kg (0.5% MC) vs i.v. 5 mg/kg), the bioavailability (commonly dose-corrected exposure relative to a reference, in per cent) was found to be 12.4 ± 3.8%. Besides, in data set [1] (setting [2]), the AUC(0-t) turned out to be 3200 ± 973 ng·h/mL.

As to `Nc1ncnc2c1c(-c1ccc(Oc3ccccc3)cc1)nn2C1CCN(C2CCC(N3CC(Oc4ccc5c(c4)C(=O)N(C4CCC(=O)NC4=O)C5=O)C3)CC2)CC1` (stereo not drawn) [Compound 36-a, 5-[1-[4-[4-[4-amino-3-(4-phenoxyphenyl)pyrazolo[3,4-d]pyrimidin-1-yl]-1-piperidyl]cyclohexyl]azetidin-3-yl]oxy-2-(2,6-dioxo-3-piperidyl)isoindoline-1,3-dione], the “SU-DHL-4 Max inhi. %” value with SU-DHL-4 cells is 99.6%.

Regarding `Nc1ncnc2c1c(-c1ccc(Oc3ccccc3)cc1)nn2C1CCN(C2CCC(N3CC(Oc4ccc5c(c4)C(=O)N(C4CCC(=O)NC4=O)C5=O)C3)CC2)CC1` (stereo not drawn) [Compound 36-b, 5-[1-[4-[4-[4-amino-3-(4-phenoxyphenyl)pyrazolo[3,4-d]pyrimidin-1-yl]-1-piperidyl]cyclohexyl]azetidin-3-yl]oxy-2-(2,6-dioxo-3-piperidyl)isoindoline-1,3-dione trifluoroacetate], the “SU-DHL-4 Max inhi. %” value in the data set with SU-DHL-4 cells (trifluoroacetate) was 99.8%.

Regarding `Nc1ncnc2c1c(-c1ccc(Oc3ccccc3)cc1)nn2C1CCN(C2CN(C3CCC(Oc4ccc5c(c4)C(=O)N(C4CCC(=O)NC4=O)C5=O)CC3)C2)CC1` (stereo not drawn) [Compound 37, 5-[4-[3-[4-[4-amino-3-(4-phenoxyphenyl)pyrazolo[3,4-d]pyrimidin-1-yl]-1-piperidyl]azetidin-1-yl]cyclohexoxy]-2-(2,6-dioxo-3-piperidyl)isoindoline-1,3-dione], half-maximal inhibition with SU-DHL-4 cells (IC50) was put at 631 nM. Moreover, the AUC(0-t) in data set [1] (setting [2]) is 473 ± 105 ng·h/mL.

`Nc1ncnc2c1c(-c1ccc(Oc3ccccc3)cc1)nn2C1CCN(C2CCN(C3CN(c4ccc5c(c4)C(=O)N(C4CCC(=O)NC4=O)C5=O)C3)CC2F)CC1` (stereo not drawn) [Compound 49-2, cis-5-(3-(4-(4-amino-3-(4-phenoxyphenyl)-1H-pyrazolo[3,4-d]pyrimidin-1-yl)-3′-fluoro-[1,4′-bipiperidin]-1′-yl)azetidin-1-yl)-2-(2,6-dioxopiperidin-3-yl)isoindoline-1,3-dione-P2] returned an IC50 in the data set with Mino cells of 10 nM. For the same compound, the “F (%)” value in data set [1] (i.g. 20 mg/kg (0.5% MC) vs i.v. 5 mg/kg) worked out at 4.14 ± 2.1%. In data set [1] (plasma), the AUC(0-t) is 475 ± 237 ng·h/mL.

The values are drawn from patent publication US11542266B1, “Substituted piperidines as BTK inhibitors” (HAISCO PHARMACEUTICALS PTE. LTD., priority 2019, dated 2023).
